Measurements taken from US20250171438A1 (Agios Pharmaceuticals, Inc., priority 2022, published 2025).

biological target: T1, human PAH with the R408W mutation (Homo sapiens, UniProt P00439, R408W); assay: Cell Based Phenylalanine Flux Assay; set-up: scale not given here; settings: A375 cells expressing human R408W PAH; 24 hrs compound incubation; 13C-Tyrosine by LC-MS; average where tested multiple times; read-out: AC50
T1 construct: expressed in transfected cells
T1 sequence (P00439 1-452 R408W): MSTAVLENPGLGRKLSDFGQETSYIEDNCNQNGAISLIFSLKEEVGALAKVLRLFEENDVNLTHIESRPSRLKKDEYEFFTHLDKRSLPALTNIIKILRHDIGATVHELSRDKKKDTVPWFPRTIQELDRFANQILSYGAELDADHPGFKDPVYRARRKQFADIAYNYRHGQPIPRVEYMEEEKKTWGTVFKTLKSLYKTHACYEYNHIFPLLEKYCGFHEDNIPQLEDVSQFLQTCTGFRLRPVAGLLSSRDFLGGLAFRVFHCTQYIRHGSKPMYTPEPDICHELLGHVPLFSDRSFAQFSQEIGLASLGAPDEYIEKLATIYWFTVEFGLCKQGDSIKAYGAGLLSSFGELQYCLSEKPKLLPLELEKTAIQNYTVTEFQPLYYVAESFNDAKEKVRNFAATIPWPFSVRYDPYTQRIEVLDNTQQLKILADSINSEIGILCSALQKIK

Row | Compound | AC50 [nM]
1 | Cn1nc(CF)cc1C(=O)N1CCc2[nH]cnc2[C@H]1c1nc2c(F)cccc2s1 [Example 1917, (S)-(4-(4-fluorobenzo[d]thiazol-2-yl)-6,7-dihydro-1H-imidazo[4,5-c]pyridin-5(4H)-yl)(3-(fluoromethyl)-1-methyl-1H-pyrazol-5-yl)methanone] | 500 to 1000
2 | N#Cc1nc(-c2ccccn2)oc1C(=O)N1CCc2[nH]cnc2[C@H]1c1nc2ccccc2s1 [Example 1714, (S)-5-(4-(benzo[d]thiazol-2-yl)-4,5,6,7-tetrahydro-1H-imidazo[4,5-c]pyridine-5-carbonyl)-2-(pyridin-2-yl)oxazole-4-carbonitrile] | < 500
3 | O=C(c1oc(NC2CC2)nc1C(F)F)N1CCc2[nH]cnc2[C@H]1c1nc2ccccc2s1 [Example 1715] | < 500
4 | Cn1nc(C2CCC2)cc1C(=O)N1CCc2[nH]cnc2[C@H]1c1nc2c(F)cccc2s1 [Example 1853] | 1000 to 5000
5 | CC(C)(F)c1nnc(C(=O)N2CCc3[nH]cnc3[C@H]2c2nc3ccccc3s2)o1 [Example 1834] | < 500
6 | O=C(c1nnc(-c2cn[nH]c2)o1)N1CCc2[nH]cnc2[C@H]1c1nc2c(F)cccc2s1 [Example 1863] | 500 to 1000
7 | O=C(c1oc(C2(O)CCC2)nc1C(F)(F)F)N1CCc2[nH]cnc2[C@H]1c1nc2c(F)cccc2s1 [Example 1637, (S)-(4-(4-fluorobenzo[d]thiazol-2-yl)-6,7-dihydro-1H-imidazo[4,5-c]pyridin-5(4H)-yl)(2-(1-hydroxycyclobutyl)-4-(trifluoromethyl)oxazol-5-yl)methanone] | < 500
8 | O=C(c1oc(CCC2CC2)nc1C(F)(F)F)N1CCc2[nH]cnc2[C@H]1c1nc2c(F)cccc2s1 [Example 1625] | < 500
9 | CC(C)(O)c1ncc(C(=O)N2CC3(CC3)c3[nH]cnc3[C@H]2c2nc3ccccc3s2)o1 [Example 1677, (S)-(4′-(benzo[d]thiazol-2-yl)spiro[cyclopropane-1,7′-imidazo[4,5-c]pyridin]-5′(1′H,4′H,6′H)-yl)(2-(2-hydroxypropan-2-yl)oxazol-5-yl)methanone] | 500 to 1000
10 | O=C(c1cnc(C(F)(F)F)s1)N1CCc2[nH]cnc2[C@@H]1c1nc2ccccc2s1 [Example 1182, (R)-(4-(benzo[d]thiazol-2-yl)-6,7-dihydro-1H-imidazo[4,5-c]pyridin-5(4H)-yl)(2-(trifluoromethyl)thiazol-5-yl)methanone] | 1000 to 5000
11 | O=C(c1cnn2cc(Cl)ccc12)N1CCc2[nH]cnc2[C@@H]1c1nc2ccccc2s1 [Example 1064, (R)-(4-(benzo[d]thiazol-2-yl)-6,7-dihydro-1H-imidazo[4,5-c]pyridin-5(4H)-yl)(6-chloropyrazolo[1,5-a]pyridin-3-yl)methanone] | > 5000
12 | CC(C)(O)c1nc(C2CC2)c(C(=O)N2CCc3[nH]cnc3[C@@H]2c2nc3ccccc3s2)o1 [Example 1544, (R)-(4-(benzo[d]thiazol-2-yl)-6,7-dihydro-1H-imidazo[4,5-c]pyridin-5(4H)-yl)(4-cyclopropyl-2-(2-hydroxypropan-2-yl)oxazol-5-yl)methanone] | 1000 to 5000
13 | COCc1ncc(C(=O)N2CCc3[nH]cnc3[C@H]2c2nc3c(F)cccc3s2)s1 [Example 1703, (S)-(4-(4-fluorobenzo[d]thiazol-2-yl)-6,7-dihydro-1H-imidazo[4,5-c]pyridin-5(4H)-yl)(2-(methoxymethyl)thiazol-5-yl)methanone] | 500 to 1000
14 | CN(C)CCc1nc(C(F)(F)F)c(C(=O)N2CCc3[nH]cnc3[C@@H]2c2nc3ccccc3s2)o1 [Example 1582, (R)-(4-(benzo[d]thiazol-2-yl)-6,7-dihydro-1H-imidazo[4,5-c]pyridin-5(4H)-yl)(2-(2-(dimethylamino)ethyl)-4-(trifluoromethyl)oxazol-5-yl)methanone] | < 500
15 | O=C(CC1CC(F)C1)N1CCc2[nH]cnc2[C@@H]1c1nc2c(F)cccc2s1 (stereo partly drawn) [Example 1650, (R)-1-(4-(4-fluorobenzo[d]thiazol-2-yl)-6,7-dihydro-1H-imidazo[4,5-c]pyridin-5(4H)-yl)-2-(3-fluorocyclobutyl)ethanone] | 1000 to 5000
16 | O=C(c1cnc(-c2cnn(CC(F)(F)F)c2)s1)N1CCc2[nH]cnc2[C@@H]1c1nc2ccccc2s1 [Example 1362, (R)-(4-(benzo[d]thiazol-2-yl)-6,7-dihydro-1H-imidazo[4,5-c]pyridin-5(4H)-yl)(2-(1-(2,2,2-trifluoroethyl)-1H-pyrazol-4-yl)thiazol-5-yl)methanone] | 1000 to 5000
17 | CNC(C)(C)c1nc(C(F)F)c(C(=O)N2CCc3[nH]cnc3[C@H]2c2nc3c(F)cccc3s2)o1 [Example 2069, (S)-(4-(difluoromethyl)-2-(2-(methylamino)propan-2-yl)oxazol-5-yl)(4-(4-fluorobenzo[d]thiazol-2-yl)-6,7-dihydro-1H-imidazo[4,5-c]pyridin-5(4H)-yl)methanone] | < 500
18 | O=C(c1cncs1)N1CCc2[nH]cnc2[C@@H]1c1nc2c(F)cccc2s1 [Example 1218, (R)-(4-(4-fluorobenzo[d]thiazol-2-yl)-6,7-dihydro-1H-imidazo[4,5-c]pyridin-5(4H)-yl)(thiazol-5-yl)methanone] | 1000 to 5000
19 | O=C(c1cn(CC(F)(F)F)nc1Cl)N1CCc2[nH]cnc2[C@@H]1c1nc2c(F)cccc2s1 [Example 1763, (R)-(3-chloro-1-(2,2,2-trifluoroethyl)-1H-pyrazol-4-yl)(4-(4-fluorobenzo[d]thiazol-2-yl)-6,7-dihydro-1H-imidazo[4,5-c]pyridin-5(4H)-yl)methanone] | 1000 to 5000
20 | COc1ccn2ncc(C(=O)N3CCc4[nH]cnc4[C@H]3c3nc4ccccc4s3)c2c1 [Example 1083] | < 500
21 | O=C(c1nc(Cl)cs1)N1CCc2[nH]cnc2[C@H]1c1nc2cccc(F)c2s1 [Example 1263] | 1000 to 5000
22 | Cc1cccc2sc([C@H]3c4nc[nH]c4CCN3C(=O)c3cnco3)nc12 [Example 2014, (R)-(4-(4-methylbenzo[d]thiazol-2-yl)-6,7-dihydro-1H-imidazo[4,5-c]pyridin-5(4H)-yl)(oxazol-5-yl)methanone] | > 5000
23 | CC(C)(O)c1nc(C2CC2)c(C(=O)N2CCc3[nH]cnc3[C@H]2c2nc3c(F)cccc3s2)o1 [Example 1537, (S)-(4-cyclopropyl-2-(2-hydroxypropan-2-yl)oxazol-5-yl)(4-(4-fluorobenzo[d]thiazol-2-yl)-6,7-dihydro-1H-imidazo[4,5-c]pyridin-5(4H)-yl)methanone] | < 500
24 | O=C(CCc1nccs1)N1CCc2[nH]cnc2[C@H]1c1ncc(-c2ccccc2)s1 [Example 2141] | < 500
25 | Cc1ccc(-c2nnc(C(=O)N3CCc4[nH]cnc4[C@H]3c3nc4ccccc4s3)o2)nc1 [Example 1880] | < 500
26 | O=C(c1oc(OCCC(F)(F)F)nc1C(F)F)N1CCc2[nH]cnc2[C@@H]1c1nc2ccccc2s1 [Example 1771, (R)-(4-(benzo[d]thiazol-2-yl)-6,7-dihydro-1H-imidazo[4,5-c]pyridin-5(4H)-yl)(4-(difluoromethyl)-2-(3,3,3-trifluoropropoxy)oxazol-5-yl)methanone] | < 500
27 | CC[C@@H](O)c1nc(C(F)F)c(C(=O)N2CCc3[nH]cnc3[C@@H]2c2nc3c(F)cccc3s2)o1 [Example 2068, (4-(difluoromethyl)-2-((R)-1-hydroxypropyl)oxazol-5-yl)((R)-4-(4-fluorobenzo[d]thiazol-2-yl)-6,7-dihydro-1H-imidazo[4,5-c]pyridin-5(4H)-yl)methanone] | 500 to 1000
28 | O=C(c1cnn(-c2ccccn2)c1Cl)N1CCc2[nH]cnc2[C@@H]1c1nc2ccccc2s1 [Example 1896, (R)-(4-(benzo[d]thiazol-2-yl)-6,7-dihydro-1H-imidazo[4,5-c]pyridin-5(4H)-yl)(5-chloro-1-(pyridin-2-yl)-1H-pyrazol-4-yl)methanone] | 1000 to 5000

same assay, conditions: A375 cells expressing human R408W PAH; 24 hrs with compound; 13C-Tyrosine by LC-MS; average where tested multiple times

Row | Compound | AC50
29 | Cc1nc(C(F)(F)F)c(C(=O)N2CCc3nc[nH]c3C2c2nc3ccccc3s2)o1 (stereo not drawn) | E, E

same assay, conditions: A375 cells expressing human R408W PAH; 24 hrs with compound; 13C-Tyrosine by LC-MS; average where tested multiple times; read-out: AC50

Row | Compound | AC50 [nM]
30 | COCc1ncc(C(=O)N2CCc3[nH]cnc3C2c2nc3ccccc3s2)o1 (stereo not drawn) | 1000 to 5000
31 | CC1CN(C(=O)c2cnco2)C(c2nc3c(F)cccc3s2)c2nc[nH]c21 (stereo not drawn) | > 5000
32 | CC(C)(O)c1nc(C2CC2)c(C(=O)N2CCc3[nH]cnc3[C@H]2c2nc3ccccc3[nH]2)o1 [(S)-(4-(1H-benzo[d]imidazol-2-yl)-6,7-dihydro-1H-imidazo[4,5-c]pyridin-5(4H)-yl)(4-cyclopropyl-2-(2-hydroxypropan-2-yl)oxazol-5-yl)methanone] | 1000 to 5000
33 | CC(C)(O)c1noc(C(=O)N2CCc3[nH]cnc3C2c2nc3ccccc3s2)n1 (stereo not drawn) | 1000 to 5000
34 | CC1CN(C(=O)c2cnn3cc(CN(C)C)ccc23)C(c2nc3ccccc3s2)c2nc[nH]c21 (stereo not drawn) | > 5000
35 | Cc1nnc(CCC(=O)N2CCc3[nH]cnc3C2c2nc3ccc(Br)cc3[nH]2)s1 (stereo not drawn) | 1000 to 5000
36 | Cn1ncc(C(=O)N2CCc3[nH]cnc3C2c2nc3c(F)cccc3s2)n1 (stereo not drawn) | 1000 to 5000
37 | O=C(c1nc2ccccc2s1)N1CCc2[nH]cnc2C1c1nc2ccc(Cl)cc2[nH]1 (stereo not drawn) | 1000 to 5000
38 | O=C(c1nnc(CCC(F)(F)F)o1)N1CCc2[nH]cnc2C1c1nc2ccccc2s1 (stereo not drawn) | > 5000
39 | CC(C)(O)c1cc(C(=O)N2CCc3[nH]cnc3C2c2nc3ccccc3s2)no1 (stereo not drawn) | > 5000
